Laboratory results published in US10227290B2, “Glycosphingolipids for use in modulating immune responses” (The Regents of the University of California, priority 2012, dated 2019).

Assays:
[1] = tested on: Peripheral blood mononuclear cells (PBMCs), CD3+Vα24+ NKT cells; assay: In vitro expansion of CD3+Vα24+ NKT cells from human PBMCs; format: cell-based; conditions: 13 days; 0.1 μg/ml KRN7000, 1 μg/ml α-GalCerBf, 1 μg/ml ceramideBf
Method: FIGS. 6A and 6B illustrate that α-GalCerBf binds human CD1d and activates human NKT cells in vitro. FIG. 6A: PBMCs were cultured for 13 days with 0.1 μg/mlKRN7000, 1 μg/ml α-GalCerBf, or 1 μg/ml ceramideBf. Dot plots show CD3^+Vα24^+NKT cells pre- and post-expansion. The data shown are representative of at least two individual experiments performed with six individual donors. FIG. 6B: Human NKT cells were purified after two rounds of expansion with 1 μg/ml α-GalCerBf and restimulated with 10 μg/ml α-GalCerBf in the presence or absence of control Ig or anti-Cd1d blocking antibodies. IFN-γ secretion was measured in supernatants 40-48 hours later. Data are representative of two independent experiments.
The capability of α-GalCerBf to stimulate freshly isolated NKT cells was determined. A first experiment was performed to determine whether Vα24^+ cells could be expanded in vitro with α-GalCerBf as previously described for KRN7000 (see, e.g., Rogers et al., J. Immunol. Meth. 285:197-214 (2004)). Peripheral blood mononuclear cells (PBMCs) were cultured with 0.1 μg/ml KRN7000, 1 μg/ml α-GalCerBf, or 1 μg/ml ceramideBf for 13 days. The presence of CD3 Vα24^+ cells was then assessed by flow cytometry. At least two individual experiments performed with six individual donors. […] IFN-γ secretion was measured in supernatants 40-48 hours later.

[2] = tested on: cyclophosphamide (CY) induced diabetes; conditions: NOD mouse model; Sharif et al.; cited from earlier work
[3] = target: T1, Mouse CD1d (mCD1d) tetramer / TCR of NKT cell hybridomas (Mus musculus, UniProt P11609); assay: Staining of NKT cell hybridomas with sphingolipid-loaded mCD1d tetramers (flow cytometry); format: binding; conditions: mCD1d tetramer loaded with the sphingolipid
T1 construct: purchased NIH Tetramer Core Facility
T1 sequence (P11609 19-297 limits assumed): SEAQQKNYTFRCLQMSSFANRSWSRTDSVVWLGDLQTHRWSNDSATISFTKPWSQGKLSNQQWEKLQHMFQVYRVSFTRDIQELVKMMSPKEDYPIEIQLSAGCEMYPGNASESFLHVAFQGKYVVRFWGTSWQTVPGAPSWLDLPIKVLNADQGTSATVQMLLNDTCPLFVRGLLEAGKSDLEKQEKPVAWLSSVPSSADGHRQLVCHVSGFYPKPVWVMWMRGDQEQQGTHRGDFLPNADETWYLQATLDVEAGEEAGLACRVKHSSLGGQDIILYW
T1 sequence (P01887 21-119 partner): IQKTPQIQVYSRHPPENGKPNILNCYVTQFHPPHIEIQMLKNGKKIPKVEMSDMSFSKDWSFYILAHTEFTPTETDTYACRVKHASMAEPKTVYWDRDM
Method: FIGS. 4A-4C illustrate that α-GalCerBf binds CD1d and activates murine NKT cells in vitro. FIG. 4A: NKT cell hybridomas (see Example 4) were stained with anti-CD3 antibodies, and empty mCD1d tetramers or CD1d tetramers were loaded with α-GalCerBf or KRN7000. Flow cytometry plots representative of three independent experiments are shown. FIG. 4B: Hybridomas were cultured with BMDCs (bone marrow-derived dendritic cells) pre-pulsed with LPS or LPS+α-GalCerBf in the presence of control Ig or anti-CD1d blocking antibodies. IL-2 secretion was measured in supernatants 16 hr later. Data are representative of three independent experiments. FIG. 4C: Liver mononuclear cells were cultured with splenocytes plus increasing amounts of α-GalCerBf in the presence or absence of anti-CD1d blocking antibodies. IFN-γ secretion was measured in supernatants on day 5. Data are representative of three independent experiments.
The reagents used in Examples 4 and 5 for the immunology studies were as follows. PBS-57 loaded mCDld tetramers, which were used for mouse experiments, and unloaded mCD1d monomers were obtained from the NIH Tetramer Core Facility. For loading, monomers were incubated with KRN7000 or α-GalCerBf diluted in DMSO at 6 fold molar excess at 37° C. for 3 hrs in the presence of pepstatin, leupeptin, EDTA and TWEEN 20. Samples were concentrated using a 30K microconcentrator. Monomers were tetramerized by incubation with streptavidin-conjugated allophycocyanin (APC) (Molecular Probes, Inc., Eugene, Oreg.) at a 1:1 ratio. Staining was performed at room temperature for 1 hr. […] Viability was determined by staining cells with LIVE/DEAD fixable Aqua stain (Invitrogen Life Technologies, Carlsbad, Calif.) per manufacturer's instructions. […]
Synthetic CD1d tetramers were loaded with each sphingolipid, KRN7000 and α-GalCerBf), and the capability of the sphingolipid/CD1d-tetramer complex (hereafter called ‘tetramer’) to stain three NKT-cell-derived hybridomas was determined (see, e.g., Brossay et al., J. Immunol. […]

- MFI (Median Fluorescence Intensity) of tetramer staining ([3]; DN3A4-1.2 (1.2) hybridoma): 2151
- MFI (Median Fluorescence Intensity) of tetramer staining ([3]; DN3A4-1.4 (1.4) hybridoma): 683
- MFI (Median Fluorescence Intensity) of tetramer staining ([3]; N38-2C12 (2C12) hybridoma): 8932
SMILES: CCCCCCCCCCCCCCCCCCCCCCCCCC(=O)N[C@@H](CO[C@H]1O[C@H](CO)[C@H](O)[C@H](O)[C@H]1O)[C@H](O)[C@H](O)CCCCCCCCCCCCCC [KRN7000]
- Expansion of a population of CD3+Vα24+ cells [1]: showed an expansion
- Effect on cyclophosphamide (CY) induced diabetes [2]: prevents
